Laboratory results published in US6784192B2, “Piperidine compound and pharmaceutical composition thereof” (Eisai Co., Ltd., priority 2000, dated 2004).

Columns and labels:
[1] = tested on: atrial muscle of anesthetized thoracotomy dog; assay: Effective refractory period (ERP) in anesthetized thoracotomy dog; type: in vivo; settings: for Measurement Value of ERP: mean
Text: (1) An anesthetized thoracotomy dog was used for the present experiment. After opening brisket at a median line and cutting epicardium, bipolar electrodes for determination of a potential wave form were respectively stitched at the free walls of right and left atriums. Further, a wire electrode was inserted in the free wall of a right atrium to be fixed and used for electrical simulation.
(2) A program electrical stimulation equipment was connected with the electrode for electrical stimulation at the right atrium, the electrical stimulation was carried out at a stimulation periodical length of 500 mess, and a threshold for the electrical stimulation was measured. The electrical stimulation intensity for the experiments below was set to carry out stimulation at 3-fold of this threshold. However, when the threshold was 0.7 V or less, the electrical stimulation was carried out at 2.0 V. Effective refractory period (ERP) provided early premature stimulation (S2) after the basic stimulation (S1) of 10 times, and the longest linking period in which atrium potential was not generated by the premature stimulation was referred to as ERP, while shortening the linking period (S1-S2) by 5 mess. Similar experiments were also carried out for the respective basic stimulation length (BCL) of 400, 300, 250 and 200 mess (control experiment: 1 series). After carrying out 2 times or more of the control experiments and confirming that ERP was stable, the tested substance was subsequently administered, and similar measurement was carried out. After the tested substance was administered once intravenously for 5 minutes, its keeping dose was subsequently administered intravenously. After 10 minutes of the administration start of the keeping dose, ERP was measured in the respective stimulation frequency. After completion of the one series of measurements, the concentration of the tested substance was increased and the similar experiments were repeated. The ERP and conduction time in the atrium in the respective stimulation frequency were compared with various indices under control condition. The result is shown by mean.

rabbit atrial muscle = assay: Assessment for rabbit atrial muscle, Vmax; settings: Test Example 4, right atrial muscle, stimulation frequency 4 Hz, 15 minutes
Method: The specimen of the right atrial muscle which was enucleated from rabbit was used for the present experiment. The electrical stimulation was applied for the right atrial muscle which was enucleated, under conditions: a stimulation duration of 1 mess; a stimulation frequency of 4 Hz; and a stimulation intensity of about 1.2-fold of the threshold. The stimulation was provided from 30 minutes to 60 minutes before start of the experiment, and the condition of the specimen was stabilized. The action potential was recorded according to a glass microelectrode method. 3 M KCl was charged in the glass electrode, inserted in the specimen of the right atrium, and the action potential was recorded. Vmax is the parameter of the maximum upstroke slope of the action potential recorded, and a value which was automatically calculated by an action potential analysis soft (CAPA 1.23 manufactured by Physiotec. Co., Ltd.) was used. After the action potential in a normal Tyrode solution was recorded as control, the action potential after flowing the tested substances at respective concentrations for 15 minutes was recorded. The action of the tested substance for Vmax was calculated as an IC50 value.

[2] = tested on: spontaneous nerve discharge of cut left saphenous nerve; assay: Suppression of spontaneous nerve discharge (ectopic firing); type: in vivo; settings: Test Example 5, rat, intravenous catheter, urethane anesthetized; for ED50: read-out: Ectopic Firing (ID50 mg/kg)
Method: In order to assess the suppression action for spontaneous nerve discharge, the experiment was carried out by a method below, referring to “Burchiel, K J., Exp. Nuerol., 102, 249-253 (1988)”. Namely, for the rat in which spontaneous discharge was observed, the left saphenous nerve was cut off nearby knee articulatio before 1 week or more, and around 3 mm of the nerve was cut off so that the nerve was not adhered again. The left saphenous nerve was exposed under urethane (1 g/kg body weight) anesthetized, and about 1 cm of adjacent portion from the cut portion was peeled from a periphery tissue. Further, a catheter was preliminarily inserted in the vein of a right neck for administration of a compound. The peeled nerve was mounted on a platinum hook electrode, and liquid paraffin was put on it so that the nerve was not dried. The electrode was connected with a fine electrode amplifier, and the value was recorded on a computer through an AD/converter from an oscilloscope. The nerve discharge recorded was assessed by the number of ignition per 10 seconds using an analysis soft (AcqKnowledge).

[3] = dose 0.1 mg/kg intravenously, BCL 200 msec
[4] = dose 0.1 mg/kg intravenously, BCL 300 msec
[5] = dose 0.1 mg/kg intravenously, BCL 400 msec
[6] = dose 0.1 mg/kg intravenously, BCL 500 msec
[7] = dose 0.3 mg/kg intravenously, BCL 200 msec
[8] = dose 0.3 mg/kg intravenously, BCL 300 msec
[9] = dose 0.3 mg/kg intravenously, BCL 400 msec
[10] = dose 0.3 mg/kg intravenously, BCL 500 msec
[11] = dose 1 mg/kg intravenously, BCL 200 msec
[12] = dose 1 mg/kg intravenously, BCL 300 msec
[13] = dose 1 mg/kg intravenously, BCL 400 msec
[14] = dose 1 mg/kg intravenously, BCL 500 msec
[15] = dose 0.1 mg/kg intravenously, BCL 250 msec
[16] = dose 0.3 mg/kg intravenously, BCL 250 msec

`O=c1[nH]cccc1CN1CCC(CCc2nccs2)CC1` [Example 109, 1-[(2-Oxo-1,2-dihydro-3-pyridinyl)methyl]-4-[2-(1,3-thiazol-2-yl)ethyl]piperidine] was tested, and the “Measurement Value of ERP” value [1, 3] was 110 ms, the “Measurement Value of ERP” value [1, 4] was 140 ms and the “Measurement Value of ERP” value [1, 5] was 165 ms. The “Measurement Value of ERP” value [1, 6] was 185 ms, the “Measurement Value of ERP” value [1, 7] was 130 ms and the “Measurement Value of ERP” value [1, 8] was 155 ms. For the same compound, the “Measurement Value of ERP” value [1, 9] was 185 ms, the “Measurement Value of ERP” value [1, 10] was 200 ms and the “Measurement Value of ERP” value [1, 11] was 150 ms. The “Measurement Value of ERP” value [1, 12] was 175 ms, the “Measurement Value of ERP” value [1, 13] was 215 ms and the “Measurement Value of ERP” value [1, 14] was 235 ms.

`COc1ncccc1CCC1CCN(Cc2ccc[nH]c2=O)CC1` [Example 118, 1-[(2-Oxo-1,2-dihydro-3-pyridinyl)methyl]-4-[2-(2-methoxy-3-pyridyl)ethyl]piperidine] was tested, and the “Measurement Value of ERP” value [1, 7] was 130 ms, the “Measurement Value of ERP” value [1, 8] was 160 ms and the “Measurement Value of ERP” value [1, 9] was 180 ms. The “Measurement Value of ERP” value [1, 10] was 190 ms, the “Measurement Value of ERP” value [1, 12] was 190 ms and the “Measurement Value of ERP” value [1, 13] was 215 ms. For the same compound, the “Measurement Value of ERP” value [1, 14] was 220 ms.

For `O=c1[nH]cccc1CN1CCC(CCc2cccc3c2OCO3)CC1` [Example 128, 1-[(2-Oxo-1,2-dihydro-3-pyridinyl)methyl]-4-(2,3-methylenedioxyphenethyl)piperidine], the “Measurement Value of ERP” value [1, 3] was 125 ms, the “Measurement Value of ERP” value [1, 4] was 160 ms and the “Measurement Value of ERP” value [1, 5] was 175 ms. The “Measurement Value of ERP” value [1, 6] was 185 ms, the “Measurement Value of ERP” value [1, 7] was 155 ms and the “Measurement Value of ERP” value [1, 8] was 180 ms. For the same compound, the “Measurement Value of ERP” value [1, 9] was 195 ms, the “Measurement Value of ERP” value [1, 10] was 210 ms and the “Measurement Value of ERP” value [1, 12] was 215 ms. For the same compound, the “Measurement Value of ERP” value [1, 13] was 250 ms and the “Measurement Value of ERP” value [1, 14] was 280 ms.

With `COc1ccccc1C(=O)CC1CCN(Cc2ccc[nH]c2=O)CC1` [Example 144, 1-[(2-Oxo-1,2-dihydro-3-pyridinyl)methyl]-4-[2-(2-methoxyphenyl)-2-oxoethyl]piperidine] the “Measurement Value of ERP” value [1, 3] was 140 ms, the “Measurement Value of ERP” value [1, 15] was 155 ms and the “Measurement Value of ERP” value [1, 4] was 165 ms. The “Measurement Value of ERP” value [1, 5] was 190 ms, the “Measurement Value of ERP” value [1, 6] was 200 ms and the “Measurement Value of ERP” value [1, 7] was 155 ms. The “Measurement Value of ERP” value [1, 16] was 165 ms, the “Measurement Value of ERP” value [1, 8] was 180 ms and the “Measurement Value of ERP” value [1, 9] was 200 ms. The “Measurement Value of ERP” value [1, 10] was 215 ms.

In the case of `C#CCN(CC#C)C(=O)C[C@H]1CCCCN1Cc1ccc[nH]c1=O` [Example 191, N1,N1-Di(2-propynyl)-2-[(2R)-1-[(2-oxo-1,2-dihydro-3-pyridinyl)methyl]-2-piperidyl]acetamide], the “Measurement Value of ERP” value [1, 7] is reported as 135 ms, the “Measurement Value of ERP” value [1, 8] is reported as 155 ms and the “Measurement Value of ERP” value [1, 9] is reported as 165 ms. The “Measurement Value of ERP” value [1, 10] was 175 ms, the “Percent change in ERP versus pre-dose control” value (from here on “Percent change”) ([1]; dose 0.3 mg/kg, BCL 300 msec) was 14.8% and the “Percent change” value ([1]; dose 0.3 mg/kg, BCL 400 msec) was 6.5%. The “Percent change” value ([1]; dose 0.3 mg/kg, BCL 500 msec) was 9.4%, the “Measurement Value of ERP” value [1, 11] was 150 ms and the “Measurement Value of ERP” value [1, 12] was 170 ms. For the same compound, the “Measurement Value of ERP” value [1, 13] was 185 ms, the “Measurement Value of ERP” value [1, 14] was 195 ms and the “Percent change” value ([1]; dose 1 mg/kg, BCL 300 msec) was 25.9%. The “Percent change” value ([1]; dose 1 mg/kg, BCL 400 msec) was 19.4% and the “Percent change” value ([1]; dose 1 mg/kg, BCL 500 msec) was 21.9%.

In the case of `C#CCN(CC#C)C(=O)C[C@H]1CCCCN1Cc1cccn(CC(F)(F)F)c1=O` [Example 194, N1,N1-Di(2-propynyl)-2-[(2R)-1-[[2-oxo-1-(2,2,2-trifluoroethyl)-1,2-dihydro-3-pyridinyl)methyl]hexahydro-2-pyridinyl]acetamide], the “Measurement Value of ERP” value [1, 3] is reported as 110 ms, the “Measurement Value of ERP” value [1, 15] is reported as 120 ms and the “Measurement Value of ERP” value [1, 4] is reported as 135 ms. The “Measurement Value of ERP” value [1, 5] was 155 ms, the “Measurement Value of ERP” value [1, 6] was 165 ms and the “Measurement Value of ERP” value [1, 7] was 125 ms. The “Measurement Value of ERP” value [1, 16] was 126 ms, the “Measurement Value of ERP” value [1, 8] was 145 ms and the “Measurement Value of ERP” value [1, 9] was 165 ms. The “Measurement Value of ERP” value [1, 10] was 175 ms, the “Measurement Value of ERP” value [1, 11] was 145 ms and the “Measurement Value of ERP” value ([1]; dose 1 mg/kg intravenously, BCL 250 msec) was 155 ms. For the same compound, the “Measurement Value of ERP” value [1, 12] was 170 ms, the “Measurement Value of ERP” value [1, 13] was 195 ms and the “Measurement Value of ERP” value [1, 14] was 210 ms.

`O=c1[nH]cc(Cl)cc1CN1CCC(/C=C/c2ccccc2F)CC1` [Example 334, 1-[(5-Chloro-2-oxo-1,2-dihydro-3-pyridinyl)methyl]-4-[(E)-2-(2-fluorophenyl)-1-ethenyl]piperidine] gave an IC50 (rabbit atrial muscle; Oryctolagus cuniculus, 0.25 h) of 17.5 µM and an ED50 [2] of 0.03 mg/kg.

`O=c1[nH]cc(F)cc1CN1CCC(/C=C/c2ccccc2F)CC1` [Example 335, 1-[(5-Fluoro-2-oxo-1,2-dihydro-3-pyridinyl)methyl]-4-[(E)-2-(2-fluorophenyl)-1-ethenyl]piperidine] was tested, and the IC50 (rabbit atrial muscle; Oryctolagus cuniculus, 0.25 h) was 7.8 µM and the ED50 [2] was 0.034 mg/kg.

Work on `Cc1ccccc1/C=C/C1CCN(Cc2cc(Cl)c[nH]c2=O)CC1` [Example 337, 1-[(5-Chloro-2-oxo-1,2-dihydro-3-pyridinyl)methyl]-4-[(E)-2-(2-methylphenyl)-1-ethenyl]piperidine] yielded an ED50 [2] of 0.3 mg/kg.

`O=C(O)C(=O)O.O=c1[nH]cccc1CN1CCC(/C=C/c2ccccc2OCC2CCCCC2)CC1` [Example 343, 1-[(2-Oxo-1,2-dihydro-3-pyridinyl)methyl]-4-[(E)-2-[(2-cyclohexylmethyloxy)phenyl]-1-ethenyl]piperidine oxalate] was tested, and the IC50 (rabbit atrial muscle) was 30 µM and the “Ectopic Firing (ID50 mg/kg)” value [2] was 0.13 mg/kg.

`O=C(O)C(=O)O.O=c1[nH]cccc1CN1CCC(/C=C\c2ccccc2OCC2CCCCC2)CC1` [Example 344, 1-[(2-Oxo-1,2-dihydro-3-pyridinyl)methyl]-4-[(Z)-2-[(2-cyclohexylmethyloxy)phenyl]-1-ethenyl]piperidine oxalate] was tested, and the IC50 (rabbit atrial muscle) was 30 µM and the “Ectopic Firing (ID50 mg/kg)” value [2] was 0.19 mg/kg.

With `O=C(O)C(=O)O.O=c1[nH]cc(F)cc1CN1CCC(/C=C/c2ccccc2OCC2CCCCC2)CC1` [Example 345, 1-[(5-Fluoro-2-oxo-1,2-dihydro-3-pyridinyl)methyl]-4-[(E)-2-[(2-cyclohexylmethyloxy)phenyl]-1-ethenyl]piperidine oxalate] the “Ectopic Firing (ID50 mg/kg)” value [2] was 0.4 mg/kg.

With `O=C(O)C(=O)O.O=c1[nH]cccc1CN1CCC(C#Cc2ccccc2OCC2CCCCC2)CC1` [Example 349, 1-[(2-Oxo-1,2-dihydro-3-pyridinyl)methyl]-4-[2-[(2-cyclohexylmethyloxy)phenyl]-1-ethynyl]piperidine oxalate] the “Ectopic Firing (ID50 mg/kg)” value [2] was 0.17 mg/kg.

With `N#Cc1c[nH]c(=O)c(CN2CCC(/C=C/c3ccccc3F)CC2)c1` [Example 351, 1-[(5-Cyano-2-oxo-1,2-dihydro-3-pyridinyl)methyl]-4-[(E)-2-(2-fluorophenyl)-1-ethenyl]piperidine] the ED50 [2] was 0.17 mg/kg.
